Laboratory results as given in patent US10287259B2, “Selenazolidine and thiazolidine compounds for treating cancer and other diseases” (The Penn State Research Foundation, priority 2016, dated 2019).

Columns and labels:
[1] = test system: pancreatic cancer cells; assay: MTT cell viability assay, pancreatic cancer (PC) cells; assay type: cell-based; conditions: Pancreatic cancer cell
Description: (§1) MTT (3-(4,5-dimethylthiazol-2-yl)-2,5-diphenyltetrazolium) assay was performed to determine the effect of AS-10 on cancer cell viability (Plano et al., 2016, J. Med. Chem. 1946-1959; Alcolea et al., 2012, Eur. J. Med. Chem. 113:134-144; Kumar et al., 2014, Eur. J. Med. Chem. 81:267-276). Briefly, 3×10^3 cells were treated with different concentrations of AS-10 in triplicate in a 96-well plate for different time points. MTT solution (20 μL of 5.0 mg/mL solution) was added to each well, three hours prior to termination time point and incubated at 37° C. Resultant formazan crystals, at termination time point, were dissolved in 50 μL DMSO. The plate was subjected to a 96-well multiscanner (Dynex Technologies, MRX Revelation; Chantilly, Va., USA) for measuring the optical densities at 570 nm and 630 nm. IC50 values were determined by performing non-linear regression using Graphpad Prism software.

[2] = test system: Panc-1 cells; assay: MTT cell viability assay, Panc-1; assay type: cell-based; conditions: for IC50: Homo sapiens
Description: as §1
To test the anti-cancer activity of AS-10 in pancreatic cancer (PC) cell lines, a MTT assay was performed. PC cell lines, Panc-1 and BxPC3, were treated with AS-10 at different doses at different time points (24, 48, and 72 h). Resulting cells were subjected to MTT cell viability assay. […] Panc-1 cells were treated with different doses of AS-10 for 48 h. After 48 h, live cells were counted and plated in a new petri dish. Cells were allowed to form colonies for 17 days. At the end of 17 days the colonies were counted and compared to the untreated cells.

[3] = test system: BxPC3 cells; assay: MTT cell viability assay, BxPC3; assay type: cell-based; conditions: Homo sapiens, BXPC-3, different time points (24, 48, 72 h)
Description: as §1
To test the anti-cancer activity of AS-10 in pancreatic cancer (PC) cell lines, a MTT assay was performed. PC cell lines, Panc-1 and BxPC3, were treated with AS-10 at different doses at different time points (24, 48, and 72 h). Resulting cells were subjected to MTT cell viability assay. […] After 48 h, live cells were counted and plated in a new petri dish. […] At the end of 17 days the colonies were counted and compared to the untreated cells.

[4] = test system: Panc-1 cells; assay: Muse Live/dead Annexin V assay; assay type: cell-based; conditions: Panc-1, 48 h; AS-10 2.5 μM, gemcitabine 50 μM
Description: Muse Annexin V & Dead Cell kit was used to determine the apoptosis cells in AS-10 treated Panc-1 cells (Plano et al., 2016, J. Med. Chem. 1946-1959). The Muse Annexin V & Dead cell assay contains Annexin V to detect phosphatidylserine (PS) on the outer surface of cells. The kit also contains a dead cell marker, 7-amino-actinomycin D (7-AAD). […] In brief, Panc-1 (1.5×10^5) cells were treated with a given dose of AS-10 or DMSO for appropriate time (0, 6, 12, 24, 36, or 48 h). Both floating cells as well as adherent cells were collected and subjected for Annexin V staining using Muse Annexin V & Dead Cell kit with Muse cell analyzer (EMD Millipore, Billerica, Mass., USA). The obtained data were analyzed using Muse 1.4 software.

[5] = test system: LNCaP cells; assay: MTT cell viability test, LNCaP; assay type: cell-based; conditions: Homo sapiens, time and concentration dependent, read-out: EC50, growth inhibition of LNCaP cells
Description: as §1

[6] = test system: NF-κB; assay: Electrophoretic mobility shift assay (EMSA); assay type: cell-based; conditions: Panc-1, 6 h pretreatment, TNF-α 30 min
Description: To determine NF-κB activation, Panc-1 (1×10^6) cells were treated with different doses of AS-10 for 6 h. Thirty minutes before termination cells were stimulated with 100 ng/mL TNF-α (which is about 3.9 nM in media after addition). At the end of thirty minutes, cells were immediately stored on ice. Nuclear and cytosolic extracts were prepared as described previously (Pandey et al., 2007, J. Biol. Chem. 282: 17340-17350). Nuclear lysates were subjected to EMSA following the protocol (Pandey et al., 2007, J. Biol. Chem. 282: 17340-17350). The dried gels were exposed to X-ray films at −80° C. for exposure.

[7] = test system: NCI-60 Human Tumor Cell Lines; assay: NCI-60 Human Tumor Cell Lines Screen; assay type: cell-based
Description: AS-10 was submitted for National Cancer Institute's (NCI) Division of Cancer Treatment and Diagnosis (DCTD) for a single dose (10 μM for 72 h) screening on 60 different cancer cell lines (NCI-60 Human Tumor Cell Lines Screen, Developmental Therapeutic Program). The panel of cell lines included leukemia, non-small cell lung, colon, CNS, melanoma, ovarian, renal, prostate and breast cancer cell lines. […] AS-10 was screened against the same 60 cell lines at a dose of 0, 0.01, 0.1, 1, 10 and 100 μM for 72 h. […] Cell lines are grouped by the cancer type they represent. […] FIG. 16 is the tabular format of the effects of AS-10 on growth of all the tested cell lines.

[8] = test system: prostate cancer cells (LnCAP, PC-3 and DU-145); assay: Apoptosis in prostate cancer cells; assay type: cell-based
[9] = test system: androgen receptor (AR) signaling in LNCaP cells; assay: AR / PSA and DNA damage response proteins in LNCaP cells; assay type: cell-based
[10] = test system: Panc-1 cells; assay: Muse caspase 3/7 activity assay; assay type: cell-based; conditions: Panc-1, 10 μM
Description: To evaluate the efficacy of AS-10 in inducing caspase 3, Panc-1 cells were treated with AS-10 at different concentrations for different time points. Caspase 3/7 activity was measured using Muse Caspase-3/7 Assay kit with Muse cell analyzer (EMD Millipore, Billercia, Mass. USA) according to manufacturer's protocol (Plano et al., 2016, J. Med. Chem. 1946-1959). In brief, the Muse Caspase 3/7 kit contains a reagent namely NucView for detection of activated caspase 3/7. The reagent is cell membrane permeable and contains a DNA binding dye that is linked to a DEVD peptide substrate. In presence of activated caspase 3/7, DEVD is cleaved and DNA binding dye is released. Therefore, cells with active caspase 3/7 activity will yield high fluorescence. (Ref Millipore, Catlog No. MCH100108). The kit also contains a dead cell marker, 7-AAD, for detection of cells with compromised cell membrane. Data from Muse cell analyzer were analyzed using Muse 1.4 software.

[11] = Maximum tolerated dose (MTD) / toxicology studies in mice

Question: Which results are given for CC(=O)Oc1ccccc1C(=O)/N=C1\[Se]CCN1C(=O)c1ccccc1OC(C)=O [AS-10, 2-((3-(2-acetoxybenzoyl)-1,3-selenazolidin-2-ylidene)carbamoyl)phenyl acetate]?
Answer: EC50 ([1]; in vitro, read-out: EC50, reduction of PC cell growth): 2.5 to 5 µM; IC50 ([1]; read-out: IC50, cytotoxicity to pancreatic cancer cells): 0.5 to 2.5 µM; IC50 ([2]; PANC-1, 48 h): 1 to 2.5 µM; IC50 ([2]; Panc-1, different time points (24, 48, 72 h)): 1 to 5 µM; potency relative to gemcitabine ([2]; Panc-1, 48 h): > 500 times; IC50 [3]: 1 to 5 µM; total apoptotic cells [4]: ~25%; EC50 [5]: 1.7 to 2.5 µM; NF-κB DNA binding (EMSA band) [6]: NF-κB band faded away in a dose dependent manner; selectivity among NCI-60 cell types ([7]; 0.01-100 μM, 72 h): most cytotoxic towards CNS, melanoma and renal cancer cell lines; cell growth of NCI-60 cell lines ([7]; single dose 10 μM for 72 h): inhibited cell growth of all 60 cell lines; Annexin V staining, caspase 3/7 activity, and PARP cleavage ([8]; LNCaP): increased; apoptosis induction in prostate cancer cells ([8]; LnCAP, PC-3 and DU-145): effective at inducing apoptosis in all prostate cancer cells tested; prostate specific antigen (PSA) in cell culture media of LnCAP cells [9]: inhibited; androgen receptor (AR) level ([9]; LNCaP): down regulated; expression of p21 and p-H2A.X ([9]; LNCaP): increased the expression; protein level of AR and PSA (Western blot) ([9]; LNCaP, concentration-dependent): decreased protein level; mode of cell death (caspase 3/7 activity, Annexin V) [10]: die in an apoptotic manner; necrosis (cells only positive for 7-ADD) [10]: did not induce necrosis; safety margin, preliminary toxicology study in mice ([11]; mouse, in vivo): wide safety margin; tolerability of AS-10 relative to Asp-SeCN (MTD) ([11]; nude mice): ~5 times; MTD ([11]; nude, mouse, in vivo, ip): ~80 mg/kg
